# Tested on: patients with high output shock
# Conditions: in vivo
# Description: The investigators, clinical support staff, the patients and their families were unaware of the treatment assignment for the duration of the study.
# Enrolled patients were randomized to receive the Study Drug infusion in normal saline calculated to run at a drip rate corresponding to an initial concentration of 20 ng/kg/min, plus the standard-of-care treatment for high output shock. The Study Drug was prepared in an opaque cellophane bag, the contents of which were unknown to the investigators, nurses or anyone else taking direct care of the patient. The Study Drug was administered for a total of 6 hours, with dose (and corresponding drip rate) adjustments made hourly. Study Drug dose adjustments were determined per a pre-specified protocol, based on the concomitant requirements of standard-of-care therapy (in all cases, norepinephrine infusion plus vasopressin, epinephrine and/or phenylephrine infusions) needed to maintain a mean arterial pressure (MAP) at or above 65 mm Hg, which is the standard practice at our institution. […] At the end of 6 hours, the Study Drug infusion was titrated off by being halved every 10 minutes until the Study Drug infusion dose was below 5 ng/kg/min, after which it was discontinued.
# A small cohort of patients was analyzed, consistent with similar studies of this nature. […] An independent data and safety monitor (DSM) was assigned and reviewed all adverse events.
smiles,measurement,value
"CC[C@H](C)[C@H](NC(=O)[C@H](Cc1ccc(O)cc1)NC(=O)[C@@H](NC(=O)[C@H](CCCNC(=N)N)NC(=O)[C@@H](N)CC(=O)O)C(C)C)C(=O)N[C@@H](Cc1cnc[nH]1)C(=O)N1CCC[C@H]1C(=O)N[C@@H](Cc1ccccc1)C(=O)O [ATII, angiotensin II]",Adverse events: Acidosis,2
same,Adverse events: Atrial Fibrillation,2
same,Adverse events: Blood or lymphatic disorders,3
same,Adverse events: Cardiac disorders,7
same,Adverse events: Decreased urine output,3
same,Adverse events: Hypertension,2
same,Adverse events: Hypotension,2
same,Adverse events: Metabolic disorders,11
same,Adverse events: Other disorders,5
same,Adverse events: Renal disorders,6
same,Adverse events: Respiratory disorders,3
same,Adverse events: Wheezing,1
same,Adverse events: Worsening AKI,0
same,Adverse events: Worsening MOSF,2
same,Adverse events: Worsening respiratory failure,1
same,"hypertension, patients receiving ATII in whom it occurred",20%
same,patients in whom ATII infusion was discontinued due to hypertension,^⋄ATII infusion was discontinued in two patients due to hypertension.
same,tolerability,well-tolerated

# Source: patent US11559559B2, “Angiotensin II alone or in combination for the treatment of hypotension” (The George Washington University a Congressionally …, priority 2013, dated 2023)
